In PMC8010095, “Discovery of novel antituberculosis agents among 3-phenyl-5-(1-phenyl-1H-[1,2,3]triazol-4-yl)-[1,2,4]oxadiazole derivatives targeting aminoacyl-tRNA synthetases” (Scientific Reports, 2021):
Read-outs that look alike come from different tables or passages of the source.

Legend:
[1] = system: Mycobacterium abscessus (ATCC 19,977); assay: microbe, parasite or virus in culture; type: cell-based; conditions: > 80% reduction in growth, screened at 20, 2 and 0.2 mg/L, 7H9 complete medium
[2] = system: Mycobacterium avium (ATCC 700,891 MAC 101); assay: microbe, parasite or virus in culture; type: cell-based; conditions: > 80% reduction in growth, screened at 20, 2 and 0.2 mg/L, 7H9 complete medium
[3] = target: T1, M. tuberculosis methionyl-tRNA synthetase (MetRS) (Mycobacterium tuberculosis, UniProt P9WFU5); assay: biochemical; type: biochemical
T1 construct: made in house; host or cells: Escherichia coli
T1 sequence (P9WFU5 whole entry): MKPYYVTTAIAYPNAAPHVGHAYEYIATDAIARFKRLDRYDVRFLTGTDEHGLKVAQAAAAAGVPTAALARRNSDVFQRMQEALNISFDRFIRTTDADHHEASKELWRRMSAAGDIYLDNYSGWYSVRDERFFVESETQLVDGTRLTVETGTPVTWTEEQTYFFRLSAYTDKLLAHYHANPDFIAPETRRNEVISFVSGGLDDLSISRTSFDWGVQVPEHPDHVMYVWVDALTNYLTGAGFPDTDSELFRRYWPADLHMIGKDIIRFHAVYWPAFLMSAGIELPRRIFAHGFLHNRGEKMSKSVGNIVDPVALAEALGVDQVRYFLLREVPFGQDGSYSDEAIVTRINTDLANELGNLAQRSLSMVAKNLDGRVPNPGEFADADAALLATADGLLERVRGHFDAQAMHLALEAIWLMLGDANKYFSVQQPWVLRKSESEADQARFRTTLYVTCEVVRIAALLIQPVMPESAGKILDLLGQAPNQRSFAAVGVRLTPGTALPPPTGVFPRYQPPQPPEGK

M. tuberculosis H37Rv = assay: microbe, parasite or virus in culture; type: cell-based; conditions: > 80% reduction in growth, screened at 20, 2 and 0.2 mg/L, 7H9 complete medium
[4] = target: T2, M. tuberculosis leucyl-tRNA synthetase (LeuRS) (Mycobacterium tuberculosis, UniProt P9WFV1); assay: biochemical; type: biochemical
T2 construct: made in house; host or cells: Escherichia coli
T2 sequence (P9WFV1 whole entry): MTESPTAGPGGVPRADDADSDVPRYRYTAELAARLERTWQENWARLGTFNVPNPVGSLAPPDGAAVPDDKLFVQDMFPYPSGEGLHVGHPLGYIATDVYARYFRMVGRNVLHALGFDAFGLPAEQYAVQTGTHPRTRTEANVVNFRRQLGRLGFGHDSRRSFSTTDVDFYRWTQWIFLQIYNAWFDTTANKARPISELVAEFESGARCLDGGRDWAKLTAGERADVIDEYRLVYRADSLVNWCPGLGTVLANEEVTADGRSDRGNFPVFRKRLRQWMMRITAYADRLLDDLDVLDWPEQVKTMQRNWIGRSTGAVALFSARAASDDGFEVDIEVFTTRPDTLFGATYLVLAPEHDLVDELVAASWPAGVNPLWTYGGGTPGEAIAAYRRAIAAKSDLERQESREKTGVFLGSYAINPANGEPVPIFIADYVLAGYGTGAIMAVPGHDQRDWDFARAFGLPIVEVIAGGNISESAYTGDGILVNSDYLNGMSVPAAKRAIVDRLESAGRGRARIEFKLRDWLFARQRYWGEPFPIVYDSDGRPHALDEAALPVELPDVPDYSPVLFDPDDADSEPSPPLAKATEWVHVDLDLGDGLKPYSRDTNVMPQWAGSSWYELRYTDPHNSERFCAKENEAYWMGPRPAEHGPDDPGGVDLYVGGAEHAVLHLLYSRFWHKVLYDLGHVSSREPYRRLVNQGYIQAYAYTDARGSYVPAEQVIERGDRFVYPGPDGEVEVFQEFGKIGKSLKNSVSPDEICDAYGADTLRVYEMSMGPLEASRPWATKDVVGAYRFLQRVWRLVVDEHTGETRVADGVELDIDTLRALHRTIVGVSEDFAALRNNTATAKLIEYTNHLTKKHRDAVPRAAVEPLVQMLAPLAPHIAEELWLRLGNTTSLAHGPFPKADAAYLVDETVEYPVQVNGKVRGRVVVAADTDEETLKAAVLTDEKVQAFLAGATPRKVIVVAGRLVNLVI

[5] = recombinant enzyme, mean ± spread (n in brackets), negative = activation

SMILES | Growth inhibition cutoff, M. abscessus 19,977 [1] [mg/L] | Growth inhibition cutoff, M. avium 700,891 (MAC 101) [2] [mg/L] | MetRS inhibition activity, % [3, 5] | Growth inhibition cutoff, H37Rv (M. tuberculosis H37Rv) [mg/L] | other results
COc1ccccc1-n1nnc(-c2nc(-c3ccc(Br)cc3)no2)c1N [Compound 35] | > 20 | > 20 | 61 ± 47 (3) % | > 20 | –
COc1ccccc1-n1nnc(-c2nc(-c3ccc(F)cc3)no2)c1N [Compound 26] | > 20 | > 20 | – | > 20 | –
Nc1c(-c2nc(-c3ccc(F)cc3)no2)nnn1-c1cccc(C(F)(F)F)c1 [Compound 19] | > 20 | > 20 | 53 ± 0.7 (2) % | > 20 | –
COc1ccc(-n2nnc(-c3nc(-c4ccc(F)cc4)no3)c2N)cc1 [Compound 13] | – | – | – | – | MIC ([1]; Mycobacteroides abscessus, ATCC19, read-out: Growth inhibition cutoff, M. abscessus 19,977): > 20 µg/mL; MIC ([2]; Mycobacterium avium, ATCC700, read-out: Growth inhibition cutoff, M. avium 700,891 (MAC 101)): > 20 µg/mL; MetRS inhibition activity, % [3]: 36 ± 5 (2) %; IC50 ([3]; mean ± s.d. (n = 3)): 122 ± 26 µM; LeuRS inhibition activity, % [4]: 79 ± 7 (2) %; IC50 ([4]; mean ± s.d. (n = 3)): 263.5 ± 0.7 µM; MIC (M. tuberculosis H37Rv; Mycobacterium tuberculosis, H37RV, read-out: Growth inhibition cutoff, H37Rv): > 20 µg/mL
Nc1c(-c2nc(-c3ccc(F)cc3)no2)nnn1-c1cccc(F)c1 [Compound 15] | > 20 | > 20 | – | > 20 | –
COc1ccc(-c2noc(-c3nnn(-c4cc(Cl)ccc4OC)c3N)n2)cc1 [Compound 37] | > 20 | > 20 | – | > 20 | –
Nc1c(-c2nc(-c3ccc(Br)cc3)no2)nnn1-c1cccc(F)c1 [Compound 33] | > 20 | > 20 | 55 ± 4 (2) % | > 20 | –
Nc1c(-c2nc(-c3ccc(F)cc3)no2)nnn1-c1ccccc1F [Compound 23] | > 20 | > 20 | 7 ± 13 (2) % | > 20 | LeuRS inhibition activity, % [4, 5]: 5 ± 7 (2) %
COc1ccc(-c2noc(-c3nnn(-c4ccc(Cl)cc4)c3C)n2)cc1OC [Compound 38] | > 20 | > 20 | 25 ± 18 (2) % | > 20 | –
Nc1c(-c2nc(-c3ccccc3)no2)nnn1-c1ccccc1F [Compound 1] | > 20 | > 20 | – | > 20 | –
COc1ccc(-n2nnc(-c3nc(-c4ccc(F)cc4)no3)c2N)cc1OC [Compound 21] | > 20 | > 20 | – | > 20 | –
Cc1cccc(-n2nnc(-c3nc(-c4ccc(F)cc4)no3)c2N)c1 [Compound 18] | > 20 | > 20 | 26 ± 20 (2) % | > 20 | LeuRS inhibition activity, % [4, 5]: 13 ± 11 (2) %
CCOc1ccc(-c2noc(-c3nnn(-c4ccccc4F)c3N)n2)cc1 [Compound 39] | > 20 | > 20 | 35 ± 6 (2) % | > 20 | –
Cc1c(-c2nc(-c3ccccc3F)no2)nnn1-c1cc(F)ccc1F [Compound 6] | > 20 | > 20 | – | > 20 | –
Nc1c(-c2nc(-c3ccc(F)cc3)no2)nnn1-c1ccc(F)cc1F [Compound 22] | > 20 | > 20 | 59 ± 9 (2) % | > 20 | –
COc1ccc(OC)c(-n2nnc(-c3nc(-c4ccc(F)cc4)no3)c2N)c1 [Compound 29] | > 20 | > 20 | 14 ± 14 (2) % | > 20 | –
Cc1c(-c2nc(-c3ccccc3F)no2)nnn1-c1ccc(F)c(Cl)c1 [Compound 4] | > 20 | > 20 | – | > 20 | LeuRS inhibition activity, % [4, 5]: 11 ± 8 (3) %
Cc1c(-c2nc(-c3ccccc3F)no2)nnn1-c1ccc(Br)cc1 [Compound 5] | > 20 | > 20 | – | > 20 | LeuRS inhibition activity, % [4, 5]: 17 ± 10 (2) %
CCOc1ccccc1-n1nnc(-c2nc(-c3ccc(F)cc3)no2)c1N [Compound 30] | > 20 | > 20 | 19 ± 0.9 (2) % | > 20 | –
CCOc1ccccc1-n1nnc(-c2nc(-c3ccc(Br)cc3)no2)c1N [Compound 36] | > 20 | > 20 | 25 ± 5 (2) % | > 20 | –
Cc1ccccc1-c1noc(-c2nnn(-c3ccc(Br)cc3)c2C)n1 [Compound 8] | > 20 | > 20 | – | > 20 | LeuRS inhibition activity, % [4, 5]: 18 ± 4 (2) %
COc1ccc(C)cc1-n1nnc(-c2nc(-c3ccc(F)cc3)no2)c1N [Compound 28] | > 20 | > 20 | 37 ± 3 (2) % | > 20 | –
Nc1c(-c2nc(-c3ccc(F)cc3)no2)nnn1-c1ccc(Br)cc1 [Compound 11] | > 20 | > 20 | – | > 20 | –
Nc1c(-c2nc(-c3ccc(F)cc3)no2)nnn1-c1ccc(Cl)cc1 [Compound 10] | > 20 | > 20 | 23 ± 25 (3) % | > 20 | –
Nc1c(-c2nc(-c3ccc(F)cc3)no2)nnn1-c1cccc(Cl)c1 [Compound 16] | > 20 | > 20 | 47 ± 19 (2) % | > 20 | –
Cc1c(-c2nc(-c3ccccc3Cl)no2)nnn1-c1cccc(F)c1 [Compound 7] | > 20 | > 20 | – | > 20 | LeuRS inhibition activity, % [4, 5]: 71 ± 5 (2) %
CCOc1ccc(-c2noc(-c3nnn(-c4ccc(F)c(Cl)c4)c3N)n2)cc1 [Compound 41] | > 20 | > 20 | 59 ± 22 (2) % | > 20 | –
Nc1c(-c2nc(-c3ccc(Br)cc3)no2)nnn1-c1ccc(F)cc1 [Compound 32] | > 20 | > 20 | 46 ± 32 (2) % | > 20 | –
